Measurements taken from the NIST ThermoML archive (doi:10.1021/je900515a).
Numbers after ± are expanded uncertainties.

Key:
[1] = molar heat capacity at constant pressure; settings: Liquid, Thermal relaxation method
[2] = Liquid, Pycnometric method

**Q.** With `C=C(F)C(F)(F)F` [2,3,3,3-tetrafluoro-1-propene] as the compound, how does the “molar heat capacity at constant pressure” value ([1]; 310 K, 2000 kPa) read?
**A.** 165.36 ± 8 J/K/mol

**Q.** And the “molar heat capacity at constant pressure” value ([1]; 310 K, 3000 kPa)?
**A.** 161.94 ± 8 J/K/mol

**Q.** And the “molar heat capacity at constant pressure” value ([1]; 310 K, 4000 kPa)?
**A.** 152.82 ± 8 J/K/mol

**Q.** And the “molar heat capacity at constant pressure” value ([1]; 310 K, 5000 kPa)?
**A.** 153.96 ± 8 J/K/mol

**Q.** What about the “molar heat capacity at constant pressure” value ([1]; 320 K, 2000 kPa) of the same compound?
**A.** 173.34 ± 9.1 J/K/mol

**Q.** What about the “molar heat capacity at constant pressure” value ([1]; 320 K, 3000 kPa) of the same compound?
**A.** 167.64 ± 8 J/K/mol

**Q.** And the “molar heat capacity at constant pressure” value ([1]; 320 K, 4000 kPa)?
**A.** 160.8 ± 8 J/K/mol

**Q.** And the “molar heat capacity at constant pressure” value ([1]; 320 K, 5000 kPa)?
**A.** 157.38 ± 8 J/K/mol

**Q.** And the “molar heat capacity at constant pressure” value ([1]; 330 K, 2000 kPa)?
**A.** 185.89 ± 9.1 J/K/mol

**Q.** What about the “molar heat capacity at constant pressure” value ([1]; 330 K, 3000 kPa) of the same compound?
**A.** 179.05 ± 9.1 J/K/mol

**Q.** What about the “molar heat capacity at constant pressure” value ([1]; 330 K, 4000 kPa) of the same compound?
**A.** 168.78 ± 8 J/K/mol

**Q.** What about the “molar heat capacity at constant pressure” value ([1]; 330 K, 5000 kPa) of the same compound?
**A.** 163.08 ± 8 J/K/mol

**Q.** And the “molar heat capacity at constant pressure” value ([1]; 340 K, 2000 kPa)?
**A.** 205.27 ± 10 J/K/mol

**Q.** What about the “molar heat capacity at constant pressure” value ([1]; 340 K, 3000 kPa) of the same compound?
**A.** 187.03 ± 9.1 J/K/mol

**Q.** And the “molar heat capacity at constant pressure” value ([1]; 340 K, 4000 kPa)?
**A.** 177.9 ± 9.1 J/K/mol

**Q.** What about the “molar heat capacity at constant pressure” value ([1]; 340 K, 5000 kPa) of the same compound?
**A.** 169.92 ± 8 J/K/mol

**Q.** And the “molar heat capacity at constant pressure” value ([1]; 350 K, 3000 kPa)?
**A.** 217.82 ± 11 J/K/mol

**Q.** And the “molar heat capacity at constant pressure” value ([1]; 350 K, 4000 kPa)?
**A.** 196.15 ± 10 J/K/mol

**Q.** What about the “molar heat capacity at constant pressure” value ([1]; 350 K, 5000 kPa) of the same compound?
**A.** 182.47 ± 9.1 J/K/mol

**Q.** And the “molar heat capacity at constant pressure” value ([1]; 360 K, 3000 kPa)?
**A.** 297.65 ± 15 J/K/mol

**Q.** What about the “molar heat capacity at constant pressure” value ([1]; 360 K, 4000 kPa) of the same compound?
**A.** 222.38 ± 11 J/K/mol

**Q.** What about the “molar heat capacity at constant pressure” value ([1]; 360 K, 5000 kPa) of the same compound?
**A.** 197.29 ± 10 J/K/mol

**Q.** What about the mass density ([2]; 310 K, 1000 kPa) of the same compound?
**A.** 1046.5 ± 4.2 kg/m3

**Q.** And the mass density ([2]; 310 K, 2000 kPa)?
**A.** 1056.3 ± 4.2 kg/m3

**Q.** What about the mass density ([2]; 310 K, 3000 kPa) of the same compound?
**A.** 1065.2 ± 4.3 kg/m3

**Q.** And the mass density ([2]; 310 K, 4000 kPa)?
**A.** 1072.8 ± 4.3 kg/m3

**Q.** And the mass density ([2]; 310 K, 5000 kPa)?
**A.** 1080.6 ± 4.3 kg/m3

**Q.** And the mass density ([2]; 320 K, 2000 kPa)?
**A.** 1013.8 ± 4.1 kg/m3

**Q.** And the mass density ([2]; 320 K, 3000 kPa)?
**A.** 1025.1 ± 4.1 kg/m3

**Q.** And the mass density ([2]; 320 K, 4000 kPa)?
**A.** 1035.3 ± 4.2 kg/m3

**Q.** And the mass density ([2]; 320 K, 5000 kPa)?
**A.** 1044.8 ± 4.2 kg/m3

**Q.** What about the mass density ([2]; 330 K, 2000 kPa) of the same compound?
**A.** 964.2 ± 3.9 kg/m3

**Q.** And the mass density ([2]; 330 K, 3000 kPa)?
**A.** 979.2 ± 3.9 kg/m3

**Q.** And the mass density ([2]; 330 K, 4000 kPa)?
**A.** 992.7 ± 4 kg/m3

**Q.** And the mass density ([2]; 330 K, 5000 kPa)?
**A.** 1004.6 ± 4 kg/m3

**Q.** And the mass density ([2]; 340 K, 2000 kPa)?
**A.** 903 ± 3.6 kg/m3

**Q.** What about the mass density ([2]; 340 K, 3000 kPa) of the same compound?
**A.** 926.7 ± 3.7 kg/m3

**Q.** And the mass density ([2]; 340 K, 4000 kPa)?
**A.** 945.3 ± 3.8 kg/m3

**Q.** What about the mass density ([2]; 340 K, 5000 kPa) of the same compound?
**A.** 961.3 ± 3.9 kg/m3

**Q.** And the mass density ([2]; 350 K, 3000 kPa)?
**A.** 861.8 ± 3.5 kg/m3

**Q.** What about the mass density ([2]; 350 K, 4000 kPa) of the same compound?
**A.** 891.3 ± 3.6 kg/m3

**Q.** And the mass density ([2]; 350 K, 5000 kPa)?
**A.** 913.1 ± 3.7 kg/m3

**Q.** And the mass density ([2]; 360 K, 3000 kPa)?
**A.** 751.9 ± 3.1 kg/m3

**Q.** What about the mass density ([2]; 360 K, 4000 kPa) of the same compound?
**A.** 818.5 ± 3.3 kg/m3

**Q.** And the mass density ([2]; 360 K, 5000 kPa)?
**A.** 853.9 ± 3.4 kg/m3
